Experimental data taken from patent US20260021193A1, “IMMUNOCONJUGATES AND METHODS” (Immunome, Inc., priority 2022, published 2026).
Counter-ions that a name gives are not always drawn. Like-named read-outs stand apart in the source and are kept apart here.

Experiments:
Jeko-1 = assay: CTG assay of payloads, Jeko-1 cells; assay type: cell-based, human; settings: 72 h, CellTiter-Glo
From the text: (§1) The CTG assay is a method of determining the number of viable cells in culture based on quantitation of the ATP present, an indicator of metabolically active cells. The cell assay requires the addition of a single reagent, Cell Titer Glo, in which cells are lysed and generation of a luminescent signal is produced. The luminescent signal is proportional to the amount of ATP present. The amount of ATP is directly proportional to the number of cells present in culture. For this assay, cells were ensured to be in log-phase for either Jeko-1 or MDA-MB-468. Cells were transferred to 96 wells and treated with compounds in three-fold serial dilution starting from […] (10 points dilution), for 72 h. Cell viability was analyzed with CellTiter-Glo® Luminescent Cell Viability Assay (Promega) following manufactures' instruction. Percentage of viable cells in each compound concentration was determined by normalizing with the luminescence of vehicle control and plotted into percentage of viability versus dose response curve by nonlinear fit in GraphPad Prism software.

[1] = Human hepatocyte clearance (HHEP CL); assay type: in vitro ADME; design: CLint scaled / half-life: dose or concentration left out as unconfirmed; settings: for half-life / CLint scaled: both sexes
Procedure: Suspensions of human hepatocytes (from 10 mixed gender human donors, final concentration 0.5×10^6 cell/mL) in Williams' E medium were incubated for 90 min with a test compound (0.90% acetonitrile and 0.10% DMSO, final concentration […]) and positive controls (7-Ethoxycoumarin, 7-Hydroxycoumarin, 0.90% acetonitrile and 0.10% DMSO, final concentration […]), with constant shaking at about 600 rpm at 37° C. in an incubator at 5% CO2 and 95% humidity. The total volume of incubation was 200 μl. A sample ([…]) was taken out at T0, 15, 30, 60 and 90 min, which was added intermediately to the ice-cold stop solution (acetonitrile with 200 ng/mL of to butamide and labetalol as internal standard) (125 μl), and vortexed at 500 rpm for 10 min, centrifuged at 3220×g for 20 min at 4° C. Analytical plates were sealed and stored at 4° C. until LCMS analysis. Viability of hepatocytes at pre-incubation was determined to be 84.5%.
(§2) Human liver microsome clearance assay assess metabolism by the cytochrome P450 system (phase I enzymes). These enzymes oxidize substrates by incorporating oxygen atoms into hydrocarbons, thus causing the introduction of hydroxyl groups, or N- O- and S-dealkylation of substrates and forming more polar products easier to be cleared. Human hepatocyte clearance assay measures more broadly the overall cellular metabolism of the test compound (phase I and phase II enzyme pathways). Phase II enzymes catalyze the conjugation reaction of xenobiotic metabolites and charged species, such as glutathione, sulfate, glycine, or glucuronic acid to form even more polar compounds for easier clearance.

[2] = Human liver microsome clearance (HLM CL); assay type: in vitro ADME; design: CLint scaled / half-life: dose or concentration left out as unconfirmed
Procedure: Working solution was prepared by adding 5 μL of compound and control stock solution (10 mM in dimethyl sulfoxide, DMSO) to 495 μL of acetonitrile (ACN) (intermediate solution concentration: 100 μM, 99% CAN and 1% DMSO. The appropriate concentrations of microsome working solutions were prepared in 100 mM potassium phosphate buffer. After reaction plates containing mixtures of compound and microsomes were pre-incubated at 37° C. for 10 min, […] of 2 mM of NADPH and 2 mM of MgCl2 solution was added to start the reaction. The final concentrations of incubation medium were as follows: microsome—0.5 mg protein/mL, test compound/control […], NADPH—1 mM, MgCl2—1 mM, acetonitrile 0.99%, DMSO 0.01%. Incubations were performed at 37° C. for 60 min. Samples were taken out at T0, T5, T15, T30, T45 and T60, which was added intermediately to the ice-cold stop solution (acetonitrile with 200 ng/mL of to butamide and labetalol as internal standard) (125 μl), shaken for 10 min, centrifuged at 4000 rpm for 20 min at 4° C. Analytical plates were analyzed by LCMS.
as §2

[3] = PAMPA (Parallel Artificial Membrane Permeability Assay); assay type: physicochemical; design: dose or concentration left out as unconfirmed
From the text: PAMPA is a method which determines the permeability of substances from a donor compartment, through a lipid-infused artificial membrane into an acceptor compartment. See Ottaviani, G.; Martel, S.; Carrupt, P-A. “Parallel Artificial Membrane Permeability Assay: A New Membrane for the Fast Prediction of Passive Human Skin Permeability”, Journal of Medicinal Chemistry, 2006, 49 (13), 3948-3954). A multi-well microtitre plate is used for the donor and a membrane/acceptor compartment is placed on top; the whole assembly is commonly referred to as a “sandwich”. At the beginning of the test, the drug is added to the donor compartment, and the acceptor compartment is drug-free. After an incubation period which may include stirring, the sandwich is separated, and the amount of drug is measured in each compartment. Mass balance allows calculation of drug that remains in the membrane.
The PAMPA was performed by Pion Inc using the GIT-0 lipid and 5 mM donor solution in pH 5.0 and pH 7.4 PRISMA buffer (containing 0.05% DMSO). The higher PAMPA data has been associated with better bystander killing. (Ogitani Y.; Hagihara K.; Oitate, M.; Naito, H.; Agatsuma T. “Bystander killing effect of DS-8201a, a novel anti-human epidermal growth factor receptor 2 antibody-drug conjugate, in tumors with human epidermal growth factor receptor 2 heterogeneity” Cancer Science, 2016, 107 (7), 1039-1046).

MDA-MB-468 = assay: CTG assay of payloads, MDA-MB-468 cells; assay type: cell-based, human; settings: Table 1, 72 h, CellTiter-Glo
From the text: as §1

SMILES | IC50 (Jeko-1; Homo sapiens, JeKo-1, Table 2) [nM] | half-life ([1]; human, hepatocytes) [min] | half-life ([2]; human, microsomes) [min] | Papp ([3]; pH 5) [×10⁻⁶ cm/s] | Papp ([3]; pH 7.4) [×10⁻⁶ cm/s] | also measured
CC[C@@]1(O)C(=O)OCc2c1cc1n(c2=O)Cc2c-1nc1cc(F)c(C)c3c1c2[C@](C)(CCCO)CC3 (single isomer, unassigned) [Compound 15-75] | 0.88 | 76.5 | 22.4 | 16.5 | 11.5 | 
CC[C@@]1(O)C(=O)OCc2c1cc1n(c2=O)Cc2c-1nc1cc(F)c(C)c3c1c2[C@@](C)(COCCO)CC3 (single isomer, unassigned) [Compound 16-83] | 1.1 | 113 | 25.7 | 47.7 | 25.1 | 
CC[C@@]1(O)C(=O)OCc2c1cc1n(c2=O)Cc2c-1nc1cc(F)c(C)c3c1c2[C@](C)(N(C)CCO)CC3 (single isomer, unassigned) [Compound 7-45, hydrochloride] |  | 42 | 9 | 56.6 | 7.5 | IC50 (Jeko-1; Homo sapiens, JeKo-1, Table 1): 33.5 nM; IC50 (MDA-MB-468; Homo sapiens, MDA-MB-468): 258 nM; CLint scaled ([1]; human, hepatocytes): 92.2 mL/min/kg; CLint scaled ([2]; human, microsomes): 137 mL/min/kg
CC[C@@]1(O)C(=O)OCc2c1cc1n(c2=O)Cc2c-1nc1cc(F)c(C)c3c1c2[C@H](CCCO)CC3 (single isomer, unassigned) [Compound 13-63] | 0.44 | 141 | 27.1 | 34.7 | 32.9 | 
CC[C@@]1(O)C(=O)OCc2c1cc1n(c2=O)Cc2c-1nc1cc(F)c(C)c3c1c2[C@@H](CCO)CC3 (single isomer, unassigned) [Compound 12-59] | 0.32 | 64.3 | 20.1 | 46.9 | 33.4 | 
CC[C@@]1(O)C(=O)OCc2c1cc1n(c2=O)Cc2c-1nc1cc(F)c(C)c3c1c2[C@@H](NC(=O)CO)CC3 [Dxd, reference compound] |  |  |  |  |  | IC50 (Jeko-1; Table 1): 1.42 nM; IC50 (Jeko-1; Table 2): 0.52 nM; IC50 (MDA-MB-468): 11.6 nM; HHEP (T1/2) ([1]; Table 1, human hepatocytes): (217) min; HHEP Cl ([1]; Table 1, human hepatocytes intrinsic clearance): 17.8 mL/min/kg; HHEP Cl (T1/2) ([1]; Table 2, one value per cell): >217; HLM Cl ([2]; Table 1, human liver microsome clearance): 8.6 mL/min/kg; HLM (T1/2) ([2]; Table 1, human liver microsomes): (>145); HLM Cl (T1/2) ([2]; Table 2, one value per cell): 52.2
CC[C@@]1(O)C(=O)OCc2c1cc1n(c2=O)Cc2c-1nc1cc(F)c(C)c3c1c2[C@H](CO)CC3 (single isomer, unassigned) [Compound 1-16] |  | 117 | 28 | 40.4 | 8.5 | IC50 (Jeko-1; Homo sapiens, JeKo-1, Table 1): 0.79 nM; IC50 (MDA-MB-468; Homo sapiens, MDA-MB-468): 7.2 nM; CLint scaled ([1]; human, hepatocytes): 33 mL/min/kg; CLint scaled ([2]; human, microsomes): 44 mL/min/kg
CC[C@@]1(O)C(=O)OCc2c1cc1n(c2=O)Cc2c-1nc1cc(F)c(C)c3c1c2[C@@](C)(CCO)CC3 (single isomer, unassigned) [Compound 14-71] | 0.18 | 47 | 10.8 | 25 | 17.3 | 
C=CC[C@H]1CCc2c(C)c(F)cc3nc4c(c1c23)Cn1c-4cc2c(c1=O)COC(=O)[C@]2(O)CC (single isomer, unassigned) [Compound 17-87] | 0.58 | 31 | 5.4 |  |  | 
CC[C@@]1(O)C(=O)OCc2c1cc1n(c2=O)Cc2c-1nc1cc(F)c(C)c3c1c2[C@H](CCO)CC3 (single isomer, unassigned) [Compound 12-58] | 0.24 | 68.1 | 20.1 | 2.9 | 3.8 | 
CC[C@@]1(O)C(=O)OCc2c1cc1n(c2=O)Cc2c-1nc1cc(F)c(C)c3c1c2C(CO)(CO)CC3 [Compound 2-20, (S)-9-ethyl-5-fluoro-9-hydroxy-1,1-bis(hydroxymethyl)-4-methyl-2,3,12,15-tetrahydrobenzo [de]pyrano[3′,4′:6,7]indolizino[1,2-b]quinoline-10,13(1H,9H)-dione] |  | 161 | 27 |  |  | IC50 (Jeko-1; Homo sapiens, JeKo-1, Table 1): 40.8 nM; IC50 (MDA-MB-468; Homo sapiens, MDA-MB-468): 351 nM; CLint scaled ([1]; human, hepatocytes): 24 mL/min/kg; CLint scaled ([2]; human, microsomes): 46 mL/min/kg
C=CC[C@@H]1CCc2c(C)c(F)cc3nc4c(c1c23)Cn1c-4cc2c(c1=O)COC(=O)[C@]2(O)CC (single isomer, unassigned) [Compound 17-86] | 0.93 | 46 | 13 |  |  | 
CC[C@@]1(O)C(=O)OCc2c1cc1n(c2=O)Cc2c-1nc1cc(F)c(C)c3c1c2[C@@](C)(CCCO)CC3 (single isomer, unassigned) [Compound 15-76] | 0.27 | 40.8 | 5.2 | 45.5 | 33.2 | 
CC[C@@]1(O)C(=O)OCc2c1cc1n(c2=O)Cc2c-1nc1cc(F)c(C)c3c1c2[C@@](C)(N(C)CCO)CC3.Cl (single isomer, unassigned) [Compound 6-44] |  |  |  |  |  | half-life ([1]; Table 1, human hepatocytes, read-out: HHEP (T1/2)): 80 min; half-life ([2]; Table 1, human liver microsomes, read-out: HLM (T1/2)): 24 min; Papp ([3]; Table 1, pH 5.0, read-out: PAMPA Pe pH 5.0): 54.9 ×10⁻⁶ cm/s; Papp ([3]; Table 1, pH 7.4, read-out: PAMPA Pe pH 7.4): 8.3 ×10⁻⁶ cm/s
CC[C@@]1(O)C(=O)OCc2c1cc1n(c2=O)Cc2c-1nc1cc(F)c(C)c3c1c2[C@](C)(CCO)CC3 (single isomer, unassigned) [Compound 14-70] | 0.79 | 53.6 | 18.4 | 44.2 | 28.5 | 
CC[C@@]1(O)C(=O)OCc2c1cc1n(c2=O)Cc2c-1nc1cc(F)c(C)c3c1c2[C@@](C)(N(C)CCO)CC3.Cl (single isomer, unassigned) [Compound 6-44, hydrochloride] |  |  |  |  |  | IC50 (Jeko-1; Homo sapiens, JeKo-1, Table 1): 24.1 nM; IC50 (MDA-MB-468; Homo sapiens, MDA-MB-468): 198 nM; CLint scaled ([1]; Table 1, human hepatocytes intrinsic clearance, read-out: HHEP Cl): 48.3 mL/min/kg; CLint scaled ([2]; microsomes, Table 1, human liver microsome clearance, read-out: HLM Cl): 51.7 mL/min/kg
CC[C@@]1(O)C(=O)OCc2c1cc1n(c2=O)Cc2c-1nc1cc(F)c(C)c3c1c2[C@@H](CCCO)CC3 (single isomer, unassigned) [Compound 13-64] | 0.28 | 79.4 | 22 | 14.6 | 10.6 | 
CC[C@@]1(O)C(=O)OCc2c1cc1n(c2=O)Cc2c-1nc1cc(F)c(C)c3c1c2[C@](C)(COCCO)CC3 (single isomer, unassigned) [Compound 16-82] | 0.64 | 45 | 5.6 | 54.8 | 25.5 | 
